Reference: US6204220A, “Substituted 2-oxo-3-alkynoic acids and methods of use thereof” (Rutgers, The State University of New Jersey, priority 1999, dated 2001)
Entries after “also recorded” stand apart in the source; their conditions may differ. Where two headings read alike, the source gives them in different places.

How the values were obtained:
Assay type in all cases: biochemical, E. coli
[1] = biological target: T1, C259N variant of 1-lip PDHc (Escherichia coli, UniProt P0AFG8, C260N); test: Inactivation of C259N variant of 1-lip PDHc; conditions: butynoic acid at 1 mM
T1 construct: made in house; host or cells: E. coli JRG1342 (PDHc null), Ptac plasmid pGS596
T1 sequence (P0AFG8 2-887 C260N): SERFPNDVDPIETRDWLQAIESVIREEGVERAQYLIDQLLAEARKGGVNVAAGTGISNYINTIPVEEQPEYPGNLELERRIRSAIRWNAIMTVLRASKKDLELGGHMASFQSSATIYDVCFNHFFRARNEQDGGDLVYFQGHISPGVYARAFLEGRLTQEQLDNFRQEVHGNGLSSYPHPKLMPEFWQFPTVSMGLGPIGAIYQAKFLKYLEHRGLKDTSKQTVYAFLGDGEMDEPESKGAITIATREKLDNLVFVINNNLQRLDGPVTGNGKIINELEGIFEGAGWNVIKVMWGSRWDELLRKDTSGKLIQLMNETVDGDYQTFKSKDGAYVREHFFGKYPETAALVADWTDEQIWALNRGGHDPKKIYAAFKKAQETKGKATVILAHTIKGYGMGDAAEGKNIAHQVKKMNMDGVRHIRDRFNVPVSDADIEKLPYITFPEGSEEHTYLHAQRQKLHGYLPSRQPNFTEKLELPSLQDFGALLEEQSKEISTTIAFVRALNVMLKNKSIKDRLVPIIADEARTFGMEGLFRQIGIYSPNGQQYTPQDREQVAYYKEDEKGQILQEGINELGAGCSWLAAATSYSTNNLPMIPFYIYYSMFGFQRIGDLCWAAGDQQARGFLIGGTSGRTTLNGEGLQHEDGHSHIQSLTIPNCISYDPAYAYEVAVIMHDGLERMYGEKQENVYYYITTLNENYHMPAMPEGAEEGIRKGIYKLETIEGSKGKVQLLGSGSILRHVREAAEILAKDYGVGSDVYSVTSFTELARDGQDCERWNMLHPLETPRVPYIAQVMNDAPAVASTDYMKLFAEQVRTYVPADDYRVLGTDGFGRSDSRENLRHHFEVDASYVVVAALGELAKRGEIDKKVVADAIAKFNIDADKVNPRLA
Method: (§1) FIG. 6. Inactivation of 1-lip PDHc and its C259N and C259S variants by 2-oxo-3-butynoic acid. 1-lip PDHc (0.162 mg/mL) or the C259N and C259S variants of 1-lip PDHc (0.162 mg/mL) in 20 mM KH2 PO4 buffer, pH 7.5, containing 1 mM ThDP and 5 mM MgCl2 were incubated in the absence (curve 1: 1-lip PDHc and C259N variant) or in the presence of 1 mM of 2-oxo-3-butynoic acid (curve 2: the C259N variant; curve 3: 1-lip PDHc and the C259S variant) in a total volume 0.5 mL in the dark. At different times, aliquots of 50 μL were withdrawn and the overall activity was measured as described in FIG. 1A.
(§2) Bacterial strains and plasmids for PDHc. Derivatives of the PDHc null strain, E. coli JRG1342 contained Ptac expression plasmids encoding PDHc with E2 chains bearing three lipoyl domains (3-lip PDHc; pGS523, the wild type parental complex), or a single lipoyl domain in each E2 subunit (1-lip PDHc; pGS501), and variant 1-lip PDH complexes with mutations in the E1 gene leading to C259S (pGS457) and C259N (pGS596) substitutions (Machado et al., 1992; Machado, 1993).
(§3) Inactivation of 1-lip and 3-lip PDH complexes and resolved E1 component by 2-oxo-3-alkynoic acids. […]

[2] = biological target: T2, C259S variant of 1-lip PDHc (Escherichia coli, UniProt P0AFG8, C260S); test: Inactivation of C259S variant of 1-lip PDHc; conditions: butynoic acid at 1 mM
T2 construct: made in house; host or cells: E. coli JRG1342 (PDHc null), Ptac plasmid pGS457
T2 sequence (P0AFG8 2-887 C260S): as the sequence (P0AFG8 2-887 C260N) above, with N259S counted along it
Method: as §1, §2, §3

E2-E3 subcomplex = biological target: T3, E2-E3 subcomplex (Escherichia coli, UniProt P06959+P0A9P0); test: Preincubation of E2-E3 subcomplex with inhibitor, reconstitution with unmodified E1; conditions: up to 20 min preincubation, unmodified E1 added
T3 construct: made in house; host or cells: resolved from PDHc expressed in E. coli JRG1342
T3 sequence (P0A9P0 2-474): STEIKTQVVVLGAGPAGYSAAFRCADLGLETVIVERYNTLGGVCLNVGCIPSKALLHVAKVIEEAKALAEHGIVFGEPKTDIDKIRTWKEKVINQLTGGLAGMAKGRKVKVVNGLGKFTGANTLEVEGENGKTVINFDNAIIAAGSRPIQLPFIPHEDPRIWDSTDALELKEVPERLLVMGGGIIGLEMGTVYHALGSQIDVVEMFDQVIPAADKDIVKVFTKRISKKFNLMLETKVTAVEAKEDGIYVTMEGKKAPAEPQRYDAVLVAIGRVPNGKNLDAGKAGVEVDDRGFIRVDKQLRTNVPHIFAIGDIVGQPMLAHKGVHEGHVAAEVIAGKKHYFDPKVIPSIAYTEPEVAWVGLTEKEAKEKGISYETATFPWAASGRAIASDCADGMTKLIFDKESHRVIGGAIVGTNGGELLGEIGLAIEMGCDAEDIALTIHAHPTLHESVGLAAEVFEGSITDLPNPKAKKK
T3 sequence (P06959 whole entry): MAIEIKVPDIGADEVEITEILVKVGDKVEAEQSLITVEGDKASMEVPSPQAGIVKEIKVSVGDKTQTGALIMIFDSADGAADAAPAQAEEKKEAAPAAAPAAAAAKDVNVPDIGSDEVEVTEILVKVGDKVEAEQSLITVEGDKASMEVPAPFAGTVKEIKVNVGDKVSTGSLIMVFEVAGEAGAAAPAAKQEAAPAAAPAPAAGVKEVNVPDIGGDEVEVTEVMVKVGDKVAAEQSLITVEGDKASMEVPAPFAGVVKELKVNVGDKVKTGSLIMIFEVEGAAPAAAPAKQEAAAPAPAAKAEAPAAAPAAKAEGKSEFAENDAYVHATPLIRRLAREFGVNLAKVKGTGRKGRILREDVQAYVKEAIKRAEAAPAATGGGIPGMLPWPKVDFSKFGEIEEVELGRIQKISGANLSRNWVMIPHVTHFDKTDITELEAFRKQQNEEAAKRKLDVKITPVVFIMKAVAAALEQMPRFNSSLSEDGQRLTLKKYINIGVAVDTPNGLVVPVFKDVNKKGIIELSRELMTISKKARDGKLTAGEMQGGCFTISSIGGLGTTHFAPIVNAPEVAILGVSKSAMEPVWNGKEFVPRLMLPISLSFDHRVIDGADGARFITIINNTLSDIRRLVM
Method: (§4) Activity and related measurements on PDHc. The overall enzymatic reaction of the PDH complex was assayed using a Varian DMS 300 spectrophotometer or the Cobas Bio (Roche Diagnostics, Somerville, N.J.) automated centrifugal analyzer, monitoring the pyruvate-dependent reduction of NAD^+ at 340 nm. The reaction medium contained in 1 mL (DMS 300) or 0.25 mL (Cobas-Bio) test volume: 0.1 M Tris-HCl, pH 8.0; 1 mM MgCl2; 2 mM sodium pyruvate; 2.5 mM NAD^+; 0.052-0.2 mM coenzyme A; 0.2 mM ThDP; and 2.6 mM DTT at 27° C. The reaction was initiated either by adding enzyme to a mixture of all other components, or by adding CoA.
When the E2-E3 subcomplex was preincubated for different times (up to 20 min) with 2-oxo-3-butynoic acid, followed by dilution into a reaction mixture containing all components of the PDHc assay including unmodified E1 component, 100% of the activity could be reconstituted. In contrast, when resolved E1 was treated with inhibitors for different time periods before reconstitution with unmodified E2-E3 complex, a time-dependent decrease in the overall activity was observed (see FIG. 1B for resolved E1 reacted with 2-oxo-3-butynoic acid).

resolved E1 = biological target: T4, resolved E1 (Escherichia coli, UniProt P0AFG8); test: Inactivation of resolved E1 component (activity after reconstitution with E2-E3 subcomplex); conditions: for remaining activity at 3700 µM: 3.7 mM inhibitor; for remaining activity at 500 µM: 15 min, read-out: residual activity of E1; for residual activity of E1: conditions as for fluorescence analysis
T4 construct: made in house; host or cells: resolved from PDHc expressed in E. coli JRG1342
T4 sequence (P0AFG8 2-887): as the sequence (P0AFG8 2-887 C260N) above, with N259C counted along it
Method: Resolution of the E1 component from PDHc. […] PDHc was dialyzed against 50 mM Tris buffer, pH 9.0, containing 0.1 mM benzamidine.HCl, 0.15 M NaCl, 0.1 mM PMSF for 2 h, before applying to a column equilibrated and eluted with the same buffer.
as §4
One unit of activity is defined as the amount of NADH produced (μmol) per min per mg protein. The activity of resolved E1 was measured after reconstitution with excess E2-E3 subcomplex using the NADH assay for PDHc activity.
Inactivation of 1-lip and 3-lip PDH complexes and resolved E1 component by 2-oxo-3-alkynoic acids. Intact 1-lip or 3-lip PDH complexes (0.050-0.1 mg) or resolved E1 component (0.05-0.09 mg) were incubated in the dark with 5 mM MgCl2, […] of 2-oxo-3-alkynoic acids in 20 mM KH2 PO4 buffer, pH 7.5 at room temperature in a total volume 0.5 mL. The initial activity (100%) was assayed prior to the addition of 2-oxo-3-alkynoic acids. Samples (50 μL) were withdrawn periodically and diluted into 1 mL of assay solution, containing all components necessary for assay of the overall activity. The activity of untreated enzyme was stable during the time of inactivation.

SMILES: C#CC(=O)C(=O)O [2-oxo-3-butynoic acid, 2-Oxo-3-butynoic acid]
- inactivation of C259N variant [1]: inactivated
- inactivation of C259S variant [2]: inactivated
- activity reconstituted after preincubation of E2-E3 subcomplex with inhibitor (E2-E3 subcomplex): 100%
- residual activity of E1 used for SH titration (resolved E1): 10%
- k for inactivation of E1 (resolved E1; 0.11 mM inhibitor): 1.73 min⁻¹
- inhibition at 500 µM (resolved E1; 0.5 mM inhibitor, 20 min, 1 mM ThDP, 5 mM MgCl2): ~68%
- remaining activity at 3700 µM (resolved E1; after G-25 chromatography, read-out: residual activity of resolved E1 in the overall reaction (At)): 11.5%
- At after addition of DTT to previously inactivated E1 (resolved E1; 5 mM DTT added at At = 30%, after 60 min): 40%
- protection of E1 component from modification by pyruvate (resolved E1; 5 mM pyruvate, 1 mM ThDP, 5 mM MgCl2): completely protected
- reactivation of inactivated E1 by hydroxylamine (resolved E1; 0.2, 0.5 and 1 M hydroxylamine, neutral pH, 100 min or 15 h): failed to restore activity; also recorded: failure to reactivate
- remaining activity at 500 µM (resolved E1; 0.5 mM inhibitor, absence of DTT): ~30%
- remaining activity at 500 µM (resolved E1; 0.5 mM inhibitor, presence of 5 mM DTT): 63%
- remaining activity at 3700 µM (resolved E1; E1 1.5 mg/mL, 0.1 mM ThDP, 1 mM MgCl2, read-out: E1 activity remaining before chromatography): 16%
- Pyruvate:NAD+-oxidoreductase reaction (resolved E1; E1 treated with 3.7 mM inhibitor, At = 11.5%, after G-25): 0.343 ± 0.023 μmol/min/mg protein
- residual activity of E1 (resolved E1; absence of added ThDP): 78-90%
- residual activity of E1 (resolved E1; presence of ThDP): 40%
- Ki (resolved E1; dissociation constant for initial reversible complex): 8.5 µM
- kinact (resolved E1; rate constant at saturating inhibitor, resolved E1, read-out: ki E1 (converted)): 0.0298 s⁻¹
- kinact/KI (resolved E1; read-out: ki/Ki E1): 3500 M⁻¹ s⁻¹
- kapp, slow phase of inactivation (resolved E1; resolved E1, 0.11 mM inhibitor): 0.039 min⁻¹
- kapp, slow phase of inactivation (resolved E1; resolved E1, 1.1 mM inhibitor): 0.078 min⁻¹
